Measurements: patent publication US20110166194A1, “Asenapine Prodrugs” (Alkermes, Inc., priority 2010, published 2011)

Columns and labels:
[1] = test system: serotonergic (5-HT2A, 5-HT2C, 5-HT6, 5-HTS), noradrenergic (α2A, α2B, α2C) and dopaminergic (D3, D4) receptors; conditions: background; cited from earlier work
muscarinic receptors = conditions: background; cited from earlier work
[2] = Solution stability of asenapine prodrugs as a function of pH; type: physicochemical; conditions: 0.01M buffers pH 2.11-9.01, 25° C., HPLC after 1, 4, 10 and 24 hours; FIG. 1 and 2
Experimental: The asenapine derived prodrugs were prepared at approximately 300 ug/mL in buffers (see table of buffers below). The initial ratio of prodrug/parent was measured using a freshly prepared solution in unbuffered water. Acetonitrile was titrated into all samples as needed to ensure the complete dissolution of the compounds. The amount of acetonitrile varied depending on the solubility of each compound (see Note 1). 1.5 mL of each stability sample was transferred into a HPLC vial and the vials were maintained at 25° C. in the temperature controlled sample compartment of the HPLC. Each sample was assayed by HPLC after 1, 4, 10, and 24 hours for prodrug and asenapine content (see Note 2).
The fraction of prodrug remaining at each time point was calculated as;
Fraction Prodrug=(HPLC Area of Prodrug)/(HPLC area of prodrug+asenapine) (see Note 3).
The loss of prodrug was then fit to the equation for first order decay:
Fraction Prodrug=(Initial Fraction prodrug)*e^−kt
where t=time (in hours) and k is the rate constant for decay. Finally, the half-lives are were calculated as
Note 1: The acetonitrile concentration is not expected to have a large impact on the degradation rate since the rate follows first order decay with respect to compound (ie, the rate constant is independent of the concentration). […]

[3] = Pharmacokinetic evaluation of asenapine and asenapine prodrugs in rats; type: in vivo, Sprague-Dawley rats; conditions: rat plasma, 10 mg/rat IM, suspension in 1% HPMC in PBS saline with 0.2% Tween pH 6.0; FIG. 3
Experimental: Animals: 18 Male Sprague-Dawley rats (Charles River Laboratories, Wilmington, Mass.) were used in the study. Three groups of 6 rats were used and are referred to in this study as Groups A, B and C. Rats were approximately 350-375 g at time of arrival. Rats are housed 2 per cage with ad libitum chow and water. Environmental conditions in the housing room: 64-67° F., 30% to 70% relative humidity, and 12:12-h light:dark cycle. All experiments were approved by the institutional animal care and use committee.
Test Compounds: The following formulations of Asenapine parent drug and prodrug compounds of the invention were used in the study.
Pharmacokinetics study: Rats were dosed IM by means of a 23 gauge, 1 in. needle with 1 cc syringe 0.3 mL suspension was withdrawn from the vial containing the test compound. The rat was injected in the muscles of the hind limb after anesthesia with isoflourane. Blood samples were collected via a lateral tail vein after brief anesthesia with Isoflurane. A 27½G needle and 1 cc syringe without an anticoagulant was used for the blood collection. […]
Data Analysis: Drug concentrations in plasma samples were analyzed by liquid chromatography—mass spectroscopy using appropriate parameters for each compound. Half-life, volume of distribution, clearance, maximal concentration, and AUC were calculated by using WinNonlin version 5.2 software (Pharsight, St. Louis, Mo.).

CN1CC2c3ccccc3Oc3ccc(Cl)cc3C2C1 (stereo not shown) [Asenapine]
Affinity relative to D2 receptors [1]: higher affinity
Affinity (muscarinic receptors): minimal affinity

CC(C)(C)C(=O)OC[N+]1(C)CC2c3ccccc3Oc3ccc(Cl)cc3C2C1.[Cl-] (stereo not shown) [asenapine pivalate]
Solution stability (loss of prodrug to asenapine) [2]: more stable than the asenapine octanoate

CCC(C)(C)C(=O)OC[N+]1(C)CC2c3ccccc3Oc3ccc(Cl)cc3C2C1.[I-] (stereo not shown) [ASN-83, Asenapine dimethyl butyrate prodrug]
Cmax [3]: lower than the Cmax of the parent Asenapine formulation as well as lower than that of the Asenapine palmitate prodrug (ASN-76)
